According to US12590091B2, “1H-pyrrolo[3,2-C]pyridine and 1H-pyrrolo[2,3-C]pyridine derivatives as TLR9 inhibitors for the treatment of fibrosis” (BRISTOL-MYERS SQUIBB COMPANY, priority 2020, dated 2026):
Blank lines part the entries; values can stand above or below the compound they belong to.

Key:
human TLR9 = target: T1, human TLR9 (Homo sapiens, UniProt Q9NR96); assay: TLR9 inhibition reporter assay (HEK-Blue cells, SEAP reporter); type: cell-based; settings: HEK-Blue cells overexpressing human TLR9, stimulated with ODN2006 5 nM, 22 hour incubation
T1 construct: host or cells: HEK-Blue cells
T1 sequence (Q9NR96 26-1032): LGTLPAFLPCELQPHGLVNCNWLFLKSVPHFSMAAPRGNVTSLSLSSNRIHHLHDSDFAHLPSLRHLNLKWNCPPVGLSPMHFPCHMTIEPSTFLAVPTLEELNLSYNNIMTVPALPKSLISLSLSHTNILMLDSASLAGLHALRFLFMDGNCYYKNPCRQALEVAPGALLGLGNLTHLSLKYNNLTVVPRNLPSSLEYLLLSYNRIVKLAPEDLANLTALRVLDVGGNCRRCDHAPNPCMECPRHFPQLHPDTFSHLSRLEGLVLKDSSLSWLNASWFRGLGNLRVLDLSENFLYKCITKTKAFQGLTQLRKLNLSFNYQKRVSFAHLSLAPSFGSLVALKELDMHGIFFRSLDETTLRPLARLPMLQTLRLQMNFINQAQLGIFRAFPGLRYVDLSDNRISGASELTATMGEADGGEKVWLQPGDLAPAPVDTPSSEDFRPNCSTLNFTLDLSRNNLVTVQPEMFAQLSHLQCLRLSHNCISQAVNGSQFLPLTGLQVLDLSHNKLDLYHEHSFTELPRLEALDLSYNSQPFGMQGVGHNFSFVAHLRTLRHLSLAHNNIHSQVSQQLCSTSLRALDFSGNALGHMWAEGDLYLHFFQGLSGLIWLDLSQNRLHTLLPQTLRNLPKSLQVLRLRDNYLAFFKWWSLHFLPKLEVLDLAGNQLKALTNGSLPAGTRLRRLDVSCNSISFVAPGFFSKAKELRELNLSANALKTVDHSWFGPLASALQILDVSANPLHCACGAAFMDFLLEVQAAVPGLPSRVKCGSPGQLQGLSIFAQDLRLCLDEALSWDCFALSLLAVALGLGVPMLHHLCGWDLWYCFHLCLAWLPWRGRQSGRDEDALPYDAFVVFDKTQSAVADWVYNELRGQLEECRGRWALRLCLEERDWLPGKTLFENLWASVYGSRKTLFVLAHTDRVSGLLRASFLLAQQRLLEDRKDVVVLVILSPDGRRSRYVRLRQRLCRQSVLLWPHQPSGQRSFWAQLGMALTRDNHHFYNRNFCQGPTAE
Method: (§1) TLR7/8/9 Inhibition Reporter Assays
HEK-Blue™-cells (Invivogen) overexpressing human TLR7, TLR8 or TLR9 receptors were used for screening inhibitors of these receptors using an inducible SEAP (secreted embryonic alkaline phosphatase) reporter gene under the control of the IFN-β minimal promoter fused to five NF-κB and AP-1-binding sites. Briefly, cells are seeded into Greiner 384 well plates (15000 cells per well for TLR7, 20,000 for TLR8 and 25,000 for TLR9) and then treated with test compounds in DMSO to yield a final dose response concentration range of 0.05 nM-50 μM. […] After a 22 hour incubation at 37° C., 5% CO2, SEAP levels are determined with the addition of HEK-Blue™ Detection reagent (Invivogen), a cell culture medium that allows for detection of SEAP, according to manufacturer's specifications. The percent inhibition is determined as the % reduction in the HEK-Blue signal present in wells treated with agonist plus DMSO alone compared to wells treated with a known inhibitor.

human TLR7 = target: T2, human TLR7 (Homo sapiens, UniProt Q9NYK1); assay: TLR7 inhibition reporter assay (HEK-Blue cells, SEAP reporter); type: cell-based; settings: HEK-Blue cells overexpressing human TLR7, stimulated with gardiquimod 7.5 μM, 22 hour incubation
T2 construct: host or cells: HEK-Blue cells
T2 sequence (Q9NYK1 27-1049): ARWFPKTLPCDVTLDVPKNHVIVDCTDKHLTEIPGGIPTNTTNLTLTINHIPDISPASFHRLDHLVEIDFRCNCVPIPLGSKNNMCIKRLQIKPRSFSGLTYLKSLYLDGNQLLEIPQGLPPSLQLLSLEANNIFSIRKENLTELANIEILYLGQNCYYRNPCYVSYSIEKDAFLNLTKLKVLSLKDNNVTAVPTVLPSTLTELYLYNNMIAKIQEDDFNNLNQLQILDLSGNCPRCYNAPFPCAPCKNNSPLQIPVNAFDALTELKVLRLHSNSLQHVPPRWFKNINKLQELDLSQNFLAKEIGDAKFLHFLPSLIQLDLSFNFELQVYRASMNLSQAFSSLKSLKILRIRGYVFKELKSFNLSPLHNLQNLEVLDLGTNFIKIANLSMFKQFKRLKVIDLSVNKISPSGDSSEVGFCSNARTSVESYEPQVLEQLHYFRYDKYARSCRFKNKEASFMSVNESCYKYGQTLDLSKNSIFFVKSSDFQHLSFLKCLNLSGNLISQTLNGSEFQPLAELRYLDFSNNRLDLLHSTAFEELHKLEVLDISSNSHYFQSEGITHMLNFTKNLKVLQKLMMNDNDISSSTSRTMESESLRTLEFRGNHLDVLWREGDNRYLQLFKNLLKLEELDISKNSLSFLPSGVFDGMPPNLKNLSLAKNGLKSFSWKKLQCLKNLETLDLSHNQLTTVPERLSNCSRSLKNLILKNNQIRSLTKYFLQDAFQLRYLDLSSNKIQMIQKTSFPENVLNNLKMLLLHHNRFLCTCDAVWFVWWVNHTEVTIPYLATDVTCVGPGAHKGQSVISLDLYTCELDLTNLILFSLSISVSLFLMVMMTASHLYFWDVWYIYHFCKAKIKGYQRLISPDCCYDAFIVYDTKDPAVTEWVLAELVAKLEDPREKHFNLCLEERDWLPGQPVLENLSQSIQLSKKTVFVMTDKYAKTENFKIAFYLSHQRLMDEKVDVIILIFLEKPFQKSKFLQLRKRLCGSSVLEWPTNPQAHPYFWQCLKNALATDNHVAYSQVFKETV
Method: as §1
HEK-Blue™-cells (Invivogen) overexpressing human TLR7, TLR8 or TLR9 receptors were used for screening inhibitors of these receptors using an inducible SEAP (secreted embryonic alkaline phosphatase) reporter gene under the control of the IFN-β minimal promoter fused to five NF-κB and AP-1-binding sites. Briefly, cells are seeded into Greiner 384 well plates (15000 cells per well for TLR7, 20,000 for TLR8 and 25,000 for TLR9) and then treated with test compounds in DMSO to yield a final dose response concentration range of 0.05 nM-50 μM. After a 30 minute compound pre-treatment at room temperature, the cells are then stimulated with a TLR7 ligand (gardiquimod at a final concentration of 7.5 μM), TLR8 ligand (R848 at a final concentration of 15.9 μM) or TLR9 ligand (ODN2006 at a final concentration of 5 nM) to activate NF-κB and AP-1 which induce the production of SEAP. After a 22 hour incubation at 37° C., 5% CO2, SEAP levels are determined with the addition of HEK-Blue™ Detection reagent (Invivogen), a cell culture medium that allows for detection of SEAP, according to manufacturer's specifications. The percent inhibition is determined as the % reduction in the HEK-Blue signal present in wells treated with agonist plus DMSO alone compared to wells treated with a known inhibitor.

SMILES: Cc1nc(-c2ccc(N3CCN(CCCO)CC3)c(F)c2F)cc2c1cc(-c1ccc(S(C)(=O)=O)cc1)n2C [Example 55, 3-(4-(4-(1,4-dimethyl-2-(4-(methylsulfonyl)phenyl)-1H-pyrrolo[3,2-c]pyridin-6-yl)-2,3-difluorophenyl)piperazin-1-yl)propan-1-ol]
IC50 (human TLR9): 2.81 µM
IC50 (human TLR7): 5.7 µM

SMILES: Cc1nc(-c2ccc(N3CCN(CCCO)CC3)cc2)cc2c1cc(-c1ccc(S(=O)(=O)C3CC3)cc1)n2C [Example 47, 3-(4-(4-(2-(4-(cyclopropylsulfonyl)phenyl)-1,4-dimethyl-1H-pyrrolo[3,2-c]pyridin-6-yl)phenyl)piperazin-1-yl)propan-1-ol]
IC50 (human TLR9): 0.077 µM
IC50 (human TLR7): 14.7 µM

SMILES: CCOC(=O)N1CCC(N2CCC(c3cc4c(-c5ccc(OC)c(OC)c5)c(C)n(C)c4cn3)CC2)CC1 [Example 20, ethyl 4-(3-(3,4-dimethoxyphenyl)-1,2-dimethyl-1H-pyrrolo[2,3-c]pyridin-5-yl)-[1,4′-bipiperidine]-1′-carboxylate]
IC50 (human TLR9): 0.153 µM
IC50 (human TLR7): 9.2 µM

SMILES: CC(C)(O)CN1CCN(Cc2ccc(-c3cc4c(cn3)cc(-c3ccc(S(C)(=O)=O)cc3)n4C3CC3)cc2)CC1 [Example 128, 1-(4-(4-(1-cyclopropyl-2-(4-(methylsulfonyl)phenyl)-1H-pyrrolo[3,2-c]pyridin-6-yl)benzyl)piperazin-1-yl)-2-methylpropan-2-ol]
IC50 (human TLR9): 0.115 µM
IC50 (human TLR7): 2.8 µM

SMILES: COc1ccc(-c2cc3cnc(-c4ccc(N5CCN(C6CCC6)CC5)cc4)cc3n2C)cc1OC [Example 10, 6-(4-(4-Cyclobutylpiperazin-1-yl)phenyl)-2-(3,4-dimethoxyphenyl)-1-methyl-1H-pyrrolo[3,2-c]pyridine]
IC50 (human TLR9): 0.066 µM
IC50 (human TLR7): 13.8 µM

SMILES: CC(C)(O)CN1CC2CCC(C1)N2Cc1ccc(-c2cc3c(cn2)cc(-c2ccc(S(C)(=O)=O)cc2)n3C2CC2)cc1 [Example 130, 1-(8-(4-(1-cyclopropyl-2-(4-(methylsulfonyl)phenyl)-1H-pyrrolo[3,2-c]pyridin-6-yl)benzyl)-3,8-diazabicyclo[3.2.1]octan-3-yl)-2-methylpropan-2-ol]
IC50 (human TLR9): 0.092 µM
IC50 (human TLR7): 1.9 µM

SMILES: CC(C)(O)CN1C2CCC1CN(Cc1ccc(-c3cc4c(cn3)cc(-c3ccc(S(C)(=O)=O)cc3)n4C3CC3)cc1)C2 [Example 121, 1-[3-[[4-[1-cyclopropyl-2-(4-methylsulfonylphenyl)pyrrolo[3,2-c]pyridin-6-yl]phenyl]methyl]-3,8-diazabicyclo[3.2.1]octan-8-yl]-2-methyl-propan-2-ol]
IC50 (human TLR9): 0.129 µM
IC50 (human TLR7): 0.6 µM

The remaining lines, values ahead:

IC50 (human TLR9): 0.018 µM
IC50 (human TLR7): 2.1 µM
SMILES: Cc1nc(-c2ccc(C3(O)CCN(C(C)C)CC3)c(F)c2)cc2c1cc(-c1ccc(S(C)(=O)=O)cc1)n2C [Example 107, 4-(4-(1,4-dimethyl-2-(4-(methylsulfonyl)phenyl)-1H-pyrrolo[3,2-c]pyridin-6-yl)-2-fluorophenyl)-1-isopropylpiperidin-4-ol]

IC50 (human TLR9): 0.073 µM
IC50 (human TLR7): 2.2 µM
SMILES: Cc1nc(-c2ccc(C3(O)CCN(C4CC4)CC3)cc2)cc2c1cc(-c1ccc(S(C)(=O)=O)cc1)n2C [Example 87, 1-cyclopropyl-4-(4-(1,4-dimethyl-2-(4-(methylsulfonyl)phenyl)-1H-pyrrolo[3,2-c]pyridin-6-yl)phenyl)piperidin-4-ol]

IC50 (human TLR9): 0.109 µM
IC50 (human TLR7): 3.1 µM
SMILES: Cc1nc(-c2ccc(CN3C[C@@H]4CC[C@H]3CN4CCC(C)(C)O)cc2)cc2c1cc(-c1ccc(S(C)(=O)=O)cc1)n2C [Example 61, 4-((1S,4S)-5-(4-(1,4-dimethyl-2-(4-(methylsulfonyl)phenyl)-1H-pyrrolo[3,2-c]pyridin-6-yl)benzyl)-2,5-diazabicyclo[2.2.2]octan-2-yl)-2-methylbutan-2-ol]

IC50 (human TLR9): 0.047 µM
IC50 (human TLR7): 1.5 µM
SMILES: Cc1nc(-c2ccc([C@]3(O)CCN(C(C)C)C(C)(C)C3)c(F)c2)cc2c1cc(-c1ccc(S(C)(=O)=O)cc1)n2C [Example 106, (S)-4-(4-(1,4-dimethyl-2-(4-(methylsulfonyl)phenyl)-1H-pyrrolo[3,2-c]pyridin-6-yl)-2-fluorophenyl)-1-isopropyl-2,2-dimethylpiperidin-4-ol]

IC50 (human TLR9): 0.047 µM
IC50 (human TLR7): 14.2 µM
SMILES: Cc1nc(C2CCN(C3CC4CCC(C3)N4CC(C)C)CC2)cc2c1cc(-c1ccc(S(C)(=O)=O)cc1)n2C (stereo not shown) [Example 114, 6-(1-(8-isobutyl-8-azabicyclo[3.2.1]octan-3-yl)piperidin-4-yl)-1,4-dimethyl-2-(4-(methylsulfonyl)phenyl)-1H-pyrrolo[3,2-c]pyridine]

IC50 (human TLR9): 0.078 µM
IC50 (human TLR7): 23.7 µM
SMILES: Cc1nc(-c2ccc(N3CCN(CCO)CC3)c(F)c2)cc2c1cc(-c1ccc(S(C)(=O)=O)cc1)n2C [Example 69, 2-(4-(4-(1,4-dimethyl-2-(4-(methylsulfonyl)phenyl)-1H-pyrrolo[3,2-c]pyridin-6-yl)-2-fluorophenyl)piperazin-1-yl)ethan-1-ol]

IC50 (human TLR9): 0.126 µM
IC50 (human TLR7): 1.9 µM
SMILES: Cc1nc(-c2ccc(N3CC4CCC(C3)N4CCCO)c(F)c2)cc2c1cc(-c1ccc(S(C)(=O)=O)cc1)n2C [Example 77, 3-(3-(4-(1,4-dimethyl-2-(4-(methylsulfonyl)phenyl)-1H-pyrrolo[3,2-c]pyridin-6-yl)-2-fluorophenyl)-3,8-diazabicyclo[3.2.1]octan-8-yl)propan-1-ol]
